Consider 21 compounds from patent publication US4411925A, “Branched amides of L-aspartyl-d-amino acid dipeptides” (Pfizer Inc., priority 1980, dated 1983).

The nature of test [1]: Sweetness potency: gustatory sweetness compared with sucrose standard by expert taste panel. The test is classed as in vivo. As to conditions: aqueous solutions compared with 7-9% sucrose. How it is done: The sweetness potency of the instant compounds was determined by comparison of their gustatory sweetnesses with sucrose. Aqueous solutions of the compound of formula (I) diluted to a suitable range of concentrations were compared with a sucrose standard by an expert taste panel. Comparisons were generally made with aqueous sucrose solutions of 7-9%, i.e., 7-9 g. per 100 ml. Higher sucrose concentrations have a distinctive mouthfeel which may influence results and lower sucrose concentration are not indicative of normal use situations. […] All of the sweetness potency values stated herein for the compounds of the invention were determined by this method.

The conditions of test [2]: prior art values (U.S. 3,492,131; Mazur et al.; Sukehiro et al.); cited from earlier work.
For test [3] the following is noted: factor used to calculate the theoretical sweetness of the blends; cited from earlier work.

Square brackets hold non-standard residues; d marks the D form. Peptide text beside a SMILES is read from it. * marks the point of attachment. NHiPr = CC(C)N*; OiPr = CC(C)O*

As to `C[C@@H](NC(=O)[C@@H](N)CC(=O)O)C(=O)NC(C1CC1)C(C)(C)C` (mixture of isomers) [Example 6, L-Aspartyl-D-alanine N-(dl-t-butylcyclopropylcarbinyl)amide], in test [1], the Sweetness potency amounted to 1200 x sucrose. Same read-out and setting: under `C[C@@H](NC(=O)[C@@H](N)CC(=O)O)C(=O)NC1C(=O)OCC1(C)C` (mixture of isomers) [Example 27, L-Aspartyl-D-alanine N-(DL-2-amino-3,3-dimethyl-4-hydroxybutanoic acid lactone)amide] stands 100 x sucrose; under `C[C@@H](NC(=O)[C@@H](N)CC(=O)O)C(=O)NC1C(C)(C)CSC1(C)C` (mixture of isomers) [L-Aspartyl-D-alanine N-(2,2,4,4-tetramethyltetrahydrothiophene-3-yl)amide], 800 x sucrose; under `CC1CCCC(C)C1NC(=O)[C@@H](C)NC(=O)[C@@H](N)CC(=O)O` (relative stereo) [Example 3], 600 x sucrose. As to `CC1CCCCC1NC(=O)[C@@H](C)NC(=O)[C@@H](N)CC(=O)O` (stereo partly drawn) [Example 4, L-Aspartyl-D-alanine N-(2-methycyclohexyl)amide], in test [1], the Sweetness potency is recorded as 250 x sucrose.

Regarding `C[C@@H](NC(=O)[C@@H](N)CC(=O)O)C(=O)NC1C(C)(C)CCC1(C)C` [Example 7, L-Aspartyl-D-alanine N-(2,2,5,5-tetramethylcyclopent-l-yl)amide], the Sweetness potency in test [1] was found to be 800 x sucrose. Same read-out and setting: the same measure for `CC1CSCC(C)C1NC(=O)[C@@H](C)NC(=O)[C@@H](N)CC(=O)O` (stereo partly drawn) [Example 12, L-Aspartyl-D-alanine-N-(3,5-dimethyltetrahydrothiopyran-4-yl)amide]: 200 x sucrose; for `C[C@@H](NC(=O)[C@@H](N)CC(=O)O)C(=O)NC1C(C)(C)SC1(C)C` [Example 16, L-Aspartyl-D-alanine N-(2,2,4,4-tetramethylthietan-3-yl)amide]: 2000 x sucrose. In turn, `C[C@@H](NC(=O)[C@@H](N)CC(=O)O)C(=O)NC1C(C)(C)S(=O)(=O)C1(C)C` [Example 17, L-Aspartyl-D-alanine N-(2,2,4,4-tetramethyl-1,1-dioxothietan-3-yl)amide] registered a Sweetness potency in test [1] of 1000 x sucrose. On the same count and under the same terms, the same measure for `CSC(C)(C)C(NC(=O)[C@@H](C)NC(=O)[C@@H](N)CC(=O)O)C(C)C` (stereo partly drawn) [Example 18, L-Aspartyl-D-alanine N-(2-methylthio-2,4-dimethylpentan-3-yl)amide]: 150 x sucrose; for `CC[C@@H](NC(=O)[C@@H](N)CC(=O)O)C(=O)NC(C1CC1)C1CC1` [Example 20, L-Aspartyl-D-2-aminobutyric acid N-(dicyclopropylcarbinyl)amide]: 500 x sucrose; for `CC[C@@H](NC(=O)[C@@H](N)CC(=O)O)C(=O)NC1C(C)(C)S(=O)(=O)C1(C)C` [Example 21, L-Aspartyl-D-2-aminobutyric acid N-(2,2,4,4-tetramethyl-1,1-dioxothietan-3-yl)amide]: 200 x sucrose. Take `CC[C@@H](NC(=O)[C@@H](N)CC(=O)O)C(=O)NC(C(C)C)C(C)C` [Example 22, L-Aspartyl-D-2-aminobutyric acid N-(2,4-dimethyl-3-pentyl)amide]: the Sweetness potency in test [1] is listed as 100 x sucrose. Still for that read-out and setting: the same measure for `CC(C)[C@@H](NC(=O)[C@@H](N)CC(=O)O)C(=O)NC(C1CC1)C1CC1` [Example 23, L-Aspartyl-D-valine N-(dicyclopropylcarbinyl)amide]: 110 x sucrose; for `CC(C)NC(=O)[C@H](NC(=O)[C@@H](N)CC(=O)O)C(C)C` [Example 24, L-Aspartyl-D-valine N-isopropylamide] (H-Asp-[dV]-NHiPr): 1-2 x sucrose. Still for that read-out and setting: the same measure for `C[C@@H](NC(=O)[C@@H](N)CC(=O)O)C(=O)NC(C(C)(C)C)C(C)(C)C` [Example 25, L-Aspartyl-D-alanine N-(2,2,4,4-tetramethyl-3-pentyl)amide]: 450 x sucrose. In the case of `CC(C)C(NC(=O)[C@@H](C)NC(=O)[C@@H](N)CC(=O)O)C(C)(C)O` (stereo partly drawn) [Example 26, L-Aspartyl-D-alanine N-(2-hydroxy-2,4-dimethyl-3-pentyl)amide], the Sweetness potency in test [1] is listed as 125 x sucrose. In the case of `CC(C)OC(=O)[C@@H](C)NC(=O)[C@@H](N)CC(=O)O` [L-aspartyl-D-alanine isopropyl ester] (H-Asp-[dA]-OiPr), the “sweetness relative to sucrose” value in test [2] is recorded as “up to 125 times sucrose”. With `C[C@@H](NC(=O)[C@@H](N)CC(=O)O)C(=O)NC(C1CC1)C1CC1` [[I, R^a =CH3, R=CH(Δ)2], L-Aspartyl-D-alanine N-(dicyclopropylcarbinyl)amide], the Sweetness potency in test [1] worked out at 1200 x sucrose. Turning to `O=C1NS(=O)(=O)c2ccccc21.[Na]` [sodium saccharin], the Sweetness potency factor in test [3] is 300 x sucrose. With “L-Aspartyl-D-alanine N-(2,2,4,4-tetramethyltetrahydrothiophene-3-yl)amide [Example 14]”, the Sweetness potency in test [1] is 500 x sucrose.
